Several values for one entry are separate records, joined by “and”; a condition that tells them apart may be missing. Equal values may be shown once. Read-outs that look alike come from different tables or passages of the source.

One data set can be described thus: in vitro. It is filed as cell-based. The following applies: human.
A short description of data set [1]: Solubility in PBS and in assay media. It is filed as physicochemical. As for the experimental part: Solubility was measured in phosphate buffered saline (PBS) at room temperature (23° C.). PBS by definition is 137 mM NaCl, 2.7 mM KCl, 10 mM sodium phosphate dibasic, 2 mM potassium phosphate monobasic and a pH of 7.4 (34). […] Solubility was also assessed in primary assay media (Luria-Bertani Broth). […] The solubility in PBS buffer is good, and only slightly less than in assay media, and, in any case, the solubility for the probe is well above its activity in the K1 and T7 assays.

The nature of the next data set: Plasma stability, human. It is filed as in vitro ADME. The following applies: 1:1 Plasma:PBS, 37° C.
The target in data set [2] is panel of 68 receptors (Homo sapiens, UniProt P41143). Conditions: Opiate δ1, (OP1, DOP), hum, 10 μM.
Data set [3] deals with panel of 68 receptors (Homo sapiens, UniProt P08588). The following applies: Adrenergic β1, hum, 10 μM.
panel of 68 receptors (Homo sapiens, UniProt P08588), sequence (P08588 whole entry): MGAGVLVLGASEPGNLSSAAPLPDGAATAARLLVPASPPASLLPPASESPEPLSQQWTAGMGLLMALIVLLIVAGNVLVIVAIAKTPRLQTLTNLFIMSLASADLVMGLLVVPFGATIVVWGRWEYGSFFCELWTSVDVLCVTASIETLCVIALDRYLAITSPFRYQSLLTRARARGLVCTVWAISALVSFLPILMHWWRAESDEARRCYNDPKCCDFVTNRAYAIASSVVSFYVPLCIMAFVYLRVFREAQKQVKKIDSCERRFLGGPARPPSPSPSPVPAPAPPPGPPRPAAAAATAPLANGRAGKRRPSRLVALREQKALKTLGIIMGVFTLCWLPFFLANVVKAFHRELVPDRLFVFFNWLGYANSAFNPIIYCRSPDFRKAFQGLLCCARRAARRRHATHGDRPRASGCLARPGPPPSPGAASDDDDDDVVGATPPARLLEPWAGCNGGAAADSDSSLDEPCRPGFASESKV

panel of 68 receptors (Homo sapiens, UniProt P41143), sequence (P41143 whole entry): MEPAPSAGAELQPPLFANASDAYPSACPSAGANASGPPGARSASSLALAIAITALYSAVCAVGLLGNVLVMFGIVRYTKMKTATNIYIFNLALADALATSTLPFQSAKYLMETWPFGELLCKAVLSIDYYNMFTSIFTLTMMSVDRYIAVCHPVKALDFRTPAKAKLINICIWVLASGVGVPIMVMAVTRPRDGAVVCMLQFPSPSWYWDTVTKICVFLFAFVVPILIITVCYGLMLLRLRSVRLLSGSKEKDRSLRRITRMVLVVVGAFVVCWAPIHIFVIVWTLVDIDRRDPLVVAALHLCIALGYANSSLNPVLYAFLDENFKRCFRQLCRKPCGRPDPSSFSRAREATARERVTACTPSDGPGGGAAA

In “in vitro”, `CCOc1ccc(-c2cc(NC(=O)c3c(F)cccc3F)c(C(=O)O)s2)cc1` [ML317, 3-(2,6-difluorobenzamido)-5-(4-ethoxyphenyl)thiophene-2-carboxylic acid] gave a CC50 of 26 µM. Also, the solubility in data set [1] (Luria-Bertani broth (primary assay media), plasma or biological fluid, Luria-Bertani broth, read-out: Assay Media Solubility) is 68 µg/mL and 169 µM; in data set [1] (phosphate buffered saline (PBS), 23 °C, pH 7.4, aqueous buffer, 1x PBS, pH 7.4, room temperature, read-out: Aqueous Solubility), 92.6 µg/mL and 230 µM. Besides, the “Plasma Stability, % remaining at 3 hr” value in “Plasma stability, human” came to 95.3 % remaining.

As for `CCOc1ccc(-c2cc(NC(=O)c3c(F)cccc3F)c(C(=O)O)s2)cc1` [KUC107784N-02], the figures for the “% Inh.” value at panel of 68 receptors [2] and at panel of 68 receptors [3] were 0% and 2%, respectively.

The record behind these values is patent US9688653B2, “Ethoxyphenyl thienyl compounds and methods for the treatment of bacterial infections” (Duke University, priority 2013, dated 2017).
